Here are results for two compounds from patent publication US8471061B2 (priority 2004, dated 2013).

The nature of data set [1]: Acidity measurement of aqueous solutions with a pH meter. The data set is classed as physicochemical. Particulars: 1 to 1000 mM, 25° C., same concentration. As for the experimental part: Aqueous 5-aminolevulinic acid phosphate solutions and aqueous 5-aminolevulinic acid hydrochloride solutions having a concentration of from 1 to 1000 mM were respectively prepared, and their acidity was measured at 25° C. using a pH meter.

Another data set relates to Chlorella sp. Nature of the data set: Culturing of plankton. The data set is classed as cell-based. Conditions: 1 mM additive. How it is done: 5-Aminolevulinic acid nitrate was added, to a concentration of 1 mM (194 ppm), to 100 ml of a sterilized culture shown in Table 17 (components of the culture), and a Chlorella sp. was inoculated therein and cultured on a reciprocal shaker at 30° C. under aerobic and dark conditions to measure the amount of cells (OD 660).
5-Aminolevulinic acid hydrochloride was added, to a concentration of 1 mM (168 ppm), to 100 ml of the sterilized culture shown in Table 17 (components of the culture), and the Chlorella sp. was inoculated therein and cultured on a reciprocal shaker at 30° C. under aerobic and dark conditions to measure the amount of cells (OD 660).
The Chlorella sp. was inoculated into 100 ml of the sterilized culture shown in Table 17 (components of the culture) and cultured on a reciprocal shaker at 30° C. under aerobic and dark conditions to measure the amount of cells (OD 660).

Structures are written as SMILES.

Regarding `NCC(=O)CCC(=O)O.O=P(O)(O)O` [5-aminolevulinic acid phosphate, 5-aminolevulinic Acid Phosphate], the “acidity of aqueous solution (FIG. 1)” value in data set [1] was “lower than that of the aqueous 5-aminolevulinic acid hydrochloride solution”.

For `Cl.NCC(=O)CCC(=O)O` [5-aminolevulinic acid hydrochloride, reference compound], the “amount of cells: OD 660 nm” value is on record as 1.8 in the data set with Chlorella sp. (Culture time 0 day), 6.3 with Chlorella sp. (Culture time 1 day), 12.5 in the data set with Chlorella sp. (Culture time 2 day) and 14.8 with Chlorella sp. (Culture time 3 day).
